Source: patent publication US10912780B2, “Heterocyclic compounds useful as anti-bacterial agents and method for production thereof” (Bugworks Research, Inc., priority 2017, dated 2021)
Values after ≈ are worked out from the molar mass of the structure shown. Values joined by “and” are separate entries in the source; they are usually repeats but may differ in a detail not shown here. Equal entries are not always repeated.

Key:
[1] = IV formulation solubility; format: physicochemical; details: 10% L-ascorbic acid in MilliQ water (IV formulation), aqueous with cosolvent or surfactant or cyclodextrin, IV formulation: 10% L-Ascorbic acid, 1N NaOH for pH adjustment, read-out: Solubility in 10% L-ascorbic acid in fresh MilliQ water(v/v), Final
Description: Procedure: Weighed appropriate amount of the Example 15 to be tested and dissolved in 1 ml of the 10% ascorbic acid solution. (Vortex for a few seconds if the compound doesn't dissolve instantly). Sonicated the compound solution at room temperature for 5 minutes using a bath sonicator to obtain a visually clear solution. […]

[2] = system: K. pneumoniae clinical strains; assay: Antibacterial susceptibility studies (MIC50 and MIC90) with clinical strains, CLSI guidelines; format: cell-based
[3] = system: P. aeruginosa clinical strains; assay: as above; format: cell-based
E. coli DNA gyrase = E. coli DNA gyrase (Escherichia coli, UniProt P0AES4+P0AES6); assay: biochemical; details: supercoiling assay
[4] = system: A. baumannii clinical strains; assay: Antibacterial susceptibility studies (MIC50 and MIC90) with clinical strains, CLSI guidelines; format: cell-based
E. coli [ATCC25922] = assay: Urinary tract infection (UTI) rat model; format: in vivo; details: for MEAN ± SD (Log10 CFU/g kidneys) / Mean Log10 CFU/g kidney reduction (wrt 4 h PI control: 6.03 Log10 CFU/g kidneys) / MEAN ± SD (Log 10 CFU/ml Bladder) / Mean Log10 CFU/ml Bladder reduction (wrt 4 h PI control: 6.49 CFU/ml Bladder) / Log10 CFU/g (Left Kidney) / Log10 CFU/g (Right Kidney) / Log 10 CFU/ml Bladder: i.v., 1 h infusion, rat UTI, 24 h post infection; for Log10 CFU/g (Left Kidney) / Log10 CFU/g (Right Kidney) / Log 10 CFU/ml Bladder: individual animals
Description: The purpose of this study is to assess the efficacy of Example 15 against E. coli [ATCC25922] following single dose intravenous infusion doses of 3, 10 and 30 mg/kg in a Urinary Tract Infection Rat Model
Prior to the start of the infection process all animals were divided into different groups. All grouped cages of animals were carried to a procedure room, close to a biological safety cabinet. All infections were conducted in a biological safety cabinet, with appropriate personnel protection. Animals were anaesthetized by intraperitoneal injection of ketamine & xylazine (60+10 mg/kg i.p.) cocktail. Once the animals were in a sufficiently deep plane of anaesthesia as monitored by pedal reflex, the abdominal wall of each rat was shaved with electric clippers and the skin was cleansed with 10% povidine iodine. After a 1.5 to 2 cm lower abdominal wall incision, the abdominal wall muscles were separated with blunt dissection. […] After the replacement of the bladder to its original location, the abdominal muscles were approximated using suture and the skin was closed. The wounds were cleansed using 10% povidine iodine.
The IV formulation vehicle used was 10% of L-ascorbic acid in fresh MilliQ water (w/v) with pH adjusted to 4.0 with 1N Sodium hydroxide solution (w/v), and the dose volume was 10 mL/kg. Meropenem was prepared in MilliQ water and the pH of solution was adjusted to 4.5 using HCl. Four hours post infection, animals were dosed intravenously, as single doses (for test compounds), as a constant rate infusion, under Ketamine 60 mg/kg IP+Xylazine 10 mg/kg IP anesthesia, at a dose volume of 10 ml/kg, at the rate of 0.03 ml/min. The dose levels of the test compounds were 3, 10 and 30 mg/kg. Meropenem was administered as a single bolus dose at a dose volume of 5 ml/kg. All the animals were sacrificed at 24 h post infection, as specified in experimental design, by an overdose of CO2 in an appropriate exposure chamber. The group 1 animals were sacrificed at 4 h post infection.
The euthanized animals were dipped into 70% ethanol for surface decontamination. The organs were removed aseptically; the bladder was cut away near the urethra, and the kidneys were removed by blunt dissection to avoid bleeding. The bladder and each kidney separately were be homogenized in PBS. The CFU per milliliter homogenate of bladder, & kidney were determined after 18 to 24 h of incubation at 37° C.

E. coli DNA gyrase, sequence (P0AES4 whole entry, one chain of several): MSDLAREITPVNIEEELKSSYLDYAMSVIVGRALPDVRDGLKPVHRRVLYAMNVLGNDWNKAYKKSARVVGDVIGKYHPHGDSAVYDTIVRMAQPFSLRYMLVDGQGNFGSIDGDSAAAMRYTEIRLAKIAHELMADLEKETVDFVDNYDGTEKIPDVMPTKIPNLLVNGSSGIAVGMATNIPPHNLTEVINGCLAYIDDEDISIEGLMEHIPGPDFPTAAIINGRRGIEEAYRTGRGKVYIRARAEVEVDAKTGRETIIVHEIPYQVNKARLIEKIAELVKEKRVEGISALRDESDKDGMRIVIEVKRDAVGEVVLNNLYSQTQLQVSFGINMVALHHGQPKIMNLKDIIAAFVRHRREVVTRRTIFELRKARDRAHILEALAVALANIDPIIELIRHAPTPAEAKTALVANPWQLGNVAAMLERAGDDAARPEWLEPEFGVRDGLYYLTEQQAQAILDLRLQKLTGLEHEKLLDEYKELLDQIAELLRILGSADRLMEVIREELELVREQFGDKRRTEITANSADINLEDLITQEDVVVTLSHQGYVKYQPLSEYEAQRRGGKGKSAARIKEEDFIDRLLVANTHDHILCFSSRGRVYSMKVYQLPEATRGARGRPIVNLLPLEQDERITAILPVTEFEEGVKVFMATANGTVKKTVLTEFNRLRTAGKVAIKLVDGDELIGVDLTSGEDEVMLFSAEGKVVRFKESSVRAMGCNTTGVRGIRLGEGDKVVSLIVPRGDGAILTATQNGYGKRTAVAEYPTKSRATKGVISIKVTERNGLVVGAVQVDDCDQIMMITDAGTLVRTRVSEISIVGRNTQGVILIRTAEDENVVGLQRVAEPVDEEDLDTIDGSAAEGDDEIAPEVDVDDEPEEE

Cn1c(=O)ccc2ccc(F)c(CCNC[C@H]3CN(c4cnc5c(n4)NC(=O)CO5)C(=O)O3)c21 [Example 15, (S)-6-(5-(((2-(7-fluoro-1-methyl-2-oxo-1,2-dihydroquinolin-8-yl)ethyl)amino)methyl)-2-oxooxazolidin-3-yl)-2H-pyrazino[2,3-b][1,4]oxazin-3(4H)-one]
solubility at 5 min [1]: 25 mg/mL (≈ 53400 µM)
MIC ATCC13883 ([2]; K. pneumoniae reference strain ATCC13883, no unit in this line): 0.03 µg/mL (≈ 0.064 µM)
MIC50 ([2]; Klebsiella pneumoniae): 0.5 µg/mL (≈ 1.07 µM)
MIC90 ([2]; Klebsiella pneumoniae): 1 µg/mL (≈ 2.13 µM)
Minimum ([2]; lowest MIC among K. pneumoniae clinical strains (211 strains; Example 15: 176), no unit in this line): 0.06
MIC ATCC27853 ([3]; P. aeruginosa reference strain ATCC27853, no unit in this line): 0.25 µg/mL (≈ 0.534 µM)
MIC50 ([3]; Pseudomonas aeruginosa): 0.5 µg/mL (≈ 1.07 µM)
MIC90 ([3]; Pseudomonas aeruginosa): 1 µg/mL (≈ 2.13 µM)
Minimum ([3]; lowest MIC among P. aeruginosa clinical strains (215 strains; Example 15: 176), no unit in this line): 0.03
IC50 (E. coli DNA gyrase): 4.6 nM
MIC ATCC19606 ([4]; A. baumannii reference strain ATCC19606, no unit in this line): 0.06 µg/mL (≈ 0.128 µM)
MIC50 ([4]; Acinetobacter baumannii): 0.06 µg/mL (≈ 0.128 µM)
MIC90 ([4]; Acinetobacter baumannii): 0.125 µg/mL (≈ 0.267 µM)
Minimum ([4]; lowest MIC among A. baumannii clinical strains (169 strains; Example 15: 132), no unit in this line): 0.03
MEAN ± SD (Log10 CFU/g kidneys) (E. coli [ATCC25922]; 3 mg/kg): 7.13 ± 0.62 Log10 CFU/g kidneys
Mean Log10 CFU/g kidney reduction (wrt 4 h PI control: 6.03 Log10 CFU/g kidneys) (E. coli [ATCC25922]; 3 mg/kg): −1.1 Log10 CFU/g kidneys
MEAN ± SD (Log 10 CFU/ml Bladder) (E. coli [ATCC25922]; 3 mg/kg): 7.01 ± 0.23 Log 10 CFU/ml
Mean Log10 CFU/ml Bladder reduction (wrt 4 h PI control: 6.49 CFU/ml Bladder) (E. coli [ATCC25922]; 3 mg/kg): −0.52 Log10 CFU/ml
MEAN ± SD (Log10 CFU/g kidneys) (E. coli [ATCC25922]; 10 mg/kg): 5.82 ± 0.94 Log10 CFU/g kidneys
Mean Log10 CFU/g kidney reduction (wrt 4 h PI control: 6.03 Log10 CFU/g kidneys) (E. coli [ATCC25922]; 10 mg/kg): 0.21 Log10 CFU/g kidneys
MEAN ± SD (Log 10 CFU/ml Bladder) (E. coli [ATCC25922]; 10 mg/kg): 5.85 ± 0.27 Log 10 CFU/ml
Mean Log10 CFU/ml Bladder reduction (wrt 4 h PI control: 6.49 CFU/ml Bladder) (E. coli [ATCC25922]; 10 mg/kg): 0.64 Log10 CFU/ml
MEAN ± SD (Log10 CFU/g kidneys) (E. coli [ATCC25922]; 30 mg/kg): 4.46 ± 0.52 Log10 CFU/g kidneys
Mean Log10 CFU/g kidney reduction (wrt 4 h PI control: 6.03 Log10 CFU/g kidneys) (E. coli [ATCC25922]; 30 mg/kg): 1.57 Log10 CFU/g kidneys
MEAN ± SD (Log 10 CFU/ml Bladder) (E. coli [ATCC25922]; 30 mg/kg): 4.80 ± 0.17 Log 10 CFU/ml
Mean Log10 CFU/ml Bladder reduction (wrt 4 h PI control: 6.49 CFU/ml Bladder) (E. coli [ATCC25922]; 30 mg/kg): 1.69 Log10 CFU/ml
Log10 CFU/g (Left Kidney) (E. coli [ATCC25922]; 3 mg/kg): 6.81 Log10 CFU/g and 6.44 Log10 CFU/g and 6.48 Log10 CFU/g
Log10 CFU/g (Right Kidney) (E. coli [ATCC25922]; 3 mg/kg): 7.51 Log10 CFU/g and 7.68 Log10 CFU/g and 7.86 Log10 CFU/g
Log 10 CFU/ml Bladder (E. coli [ATCC25922]; 3 mg/kg): 5.54 Log 10 CFU/ml and 6.79 Log 10 CFU/ml and 7.00 Log 10 CFU/ml
Log10 CFU/g (Left Kidney) (E. coli [ATCC25922]; 10 mg/kg): 4.69 Log10 CFU/g and 5.68 Log10 CFU/g and 4.80 Log10 CFU/g
Log10 CFU/g (Right Kidney) (E. coli [ATCC25922]; 10 mg/kg): 6.66 Log10 CFU/g and 6.13 Log10 CFU/g and 6.97 Log10 CFU/g
Log 10 CFU/ml Bladder (E. coli [ATCC25922]; 10 mg/kg): 5.54 Log 10 CFU/ml and 5.97 Log 10 CFU/ml and 6.05 Log 10 CFU/ml
Log10 CFU/g (Left Kidney) (E. coli [ATCC25922]; 30 mg/kg): 4.98 Log10 CFU/g and 3.84 Log10 CFU/g and 4.12 Log10 CFU/g
Log10 CFU/g (Right Kidney) (E. coli [ATCC25922]; 30 mg/kg): 4.66 Log10 CFU/g and 4.05 Log10 CFU/g and 5.11 Log10 CFU/g
Log 10 CFU/ml Bladder (E. coli [ATCC25922]; 30 mg/kg): 4.61 Log 10 CFU/ml and 4.91 Log 10 CFU/ml and 4.90 Log 10 CFU/ml
efficacy compared to the 4 h PI control (in words) (E. coli [ATCC25922]; rat UTI model, 3 mg/kg): bacteriostatic
efficacy with respect to 4 h PI control (in words) (E. coli [ATCC25922]; rat UTI model, 10 and 30 mg/kg): significant dose dependent
efficacy versus standard drug (in words) (E. coli [ATCC25922]; rat UTI model, similar dose (30 mg/kg)): comparable to standard drug meropenem
